Laboratory results taken from PubChem BioAssay AID200 (DTP/NCI, 2004).
Where “and” joins values, the source holds several entries; their conditions need not be identical. Equal entries are not always repeated. Toxic doses and inconclusive results are not listed.

Tested on: B6C3F1 mice, B16 melanoma ip, median survival T/C
Test: NCI In Vivo Anticancer Drug Screen. Data for tumor model B16 Melanoma (intraperitoneal) in B6C3F1 mice
Details: endpoint: median survival time, higher = longer survival
Outline: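 Values are T/C ratios: the measurement in treated animals divided by that in vehicle-treated controls, using survival or tumor size in mice carrying transplantable tumors.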

[1] = dose: 50.0 mg/kg/injection, schedule: Q01DX009 (ip), vehicle: saline with Tween-80
[2] = dose: 100.0 mg/kg/injection, schedule: Q01DX009 (ip), vehicle: saline with Tween-80
[3] = dose: 6.25 mg/kg/injection, schedule: Q01DX009 (ip), vehicle: Klucel (hydroxypropylcellulose) (HPC)
[4] = dose: 12.5 mg/kg/injection, schedule: Q01DX009 (ip), vehicle: Klucel (hydroxypropylcellulose) (HPC)
[5] = dose: 25.0 mg/kg/injection, schedule: Q01DX009 (ip), vehicle: Klucel (hydroxypropylcellulose) (HPC)
[6] = dose: 12.5 mg/kg/injection, schedule: Q01DX009 (ip), vehicle: saline
[7] = dose: 25.0 mg/kg/injection, schedule: Q01DX009 (ip), vehicle: saline
[8] = dose: 50.0 mg/kg/injection, schedule: Q01DX009 (ip), vehicle: saline
[9] = dose: 6.25 mg/kg/injection, schedule: Q01DX009 (ip), vehicle: water
[10] = dose: 12.5 mg/kg/injection, schedule: Q01DX009 (ip), vehicle: water
[11] = dose: 25.0 mg/kg/injection, schedule: Q01DX009 (ip), vehicle: water

Q: For `Cc1cc2c(C(C)C)c(O)c(O)c(C=NCCO)c2c(O)c1-c1c(C)cc2c(C(C)C)c(O)c(O)c(C=NCCO)c2c1O`, which T/C (dose: 25.0 mg/kg/injection, schedule: Q01DX009 (ip), vehicle: saline with Tween-80) is on record?
A: 109 % of control and 111 % of control and 103 % of control

Q: What about the T/C [1] of the same molecule?
A: 108 % of control and 109 % of control and 91 % of control

Q: And the T/C [2]?
A: 109 % of control and 121 % of control and 101 % of control

Q: What about the T/C (dose: 200.0 mg/kg/injection, schedule: Q01DX009 (ip), vehicle: saline with Tween-80) of the same molecule?
A: 114 % of control and 120 % of control

Q: And the T/C (dose: 400.0 mg/kg/injection, schedule: Q01DX009 (ip), vehicle: saline with Tween-80)?
A: 153 % of control

Q: For `CC(=O)OCC1C(=O)OCC1C(=O)N1Cc2cc3ccccc3nc2C1` (stereo not given), which T/C (dose: 8.0 mg/kg/injection, schedule: Q01DX009 (ip), vehicle: saline with Tween-80) is on record?
A: 115 % of control

Q: What about the T/C (dose: 16.0 mg/kg/injection, schedule: Q01DX009 (ip), vehicle: saline with Tween-80) of the same molecule?
A: 95 % of control

Q: And the T/C (dose: 32.0 mg/kg/injection, schedule: Q01DX009 (ip), vehicle: saline with Tween-80)?
A: 100 % of control

Q: What about the T/C (dose: 64.0 mg/kg/injection, schedule: Q01DX009 (ip), vehicle: saline with Tween-80) of the same molecule?
A: 91 % of control

Q: What about the T/C (dose: 128.0 mg/kg/injection, schedule: Q01DX009 (ip), vehicle: saline with Tween-80) of the same molecule?
A: 88 % of control

Q: Which T/C [1] does the source give for `CCc1cccc(CC)c1-n1c(C)ccc1-c1ccccc1` here?
A: 100 % of control

Q: And the T/C [2]?
A: 107 % of control

Q: `CC(NC(=O)OCc1ccccc1)C(=O)NC(Cc1c[nH]c2ccccc12)C(=O)O` (stereo not given) was tested. Which T/C (dose: 100.0 mg/kg/injection, schedule: Q01DX009 (ip), vehicle: Klucel (hydroxypropylcellulose) (HPC)) did it give?
A: 95 % of control

Q: And the T/C (dose: 200.0 mg/kg/injection, schedule: Q01DX009 (ip), vehicle: Klucel (hydroxypropylcellulose) (HPC))?
A: 100 % of control

Q: And the T/C (dose: 400.0 mg/kg/injection, schedule: Q01DX009 (ip), vehicle: Klucel (hydroxypropylcellulose) (HPC))?
A: 89 % of control

Q: `CC(=O)[O][Pb]([O]C(C)=O)([c]1ccccc1)[c]1ccccc1` was tested. Which T/C [3] did it give?
A: 88 % of control

Q: And the T/C [4]?
A: 90 % of control

Q: And the T/C [5]?
A: 88 % of control

Q: What about the T/C (dose: 50.0 mg/kg/injection, schedule: Q01DX009 (ip), vehicle: Klucel (hydroxypropylcellulose) (HPC)) of the same molecule?
A: 93 % of control

Q: What does the source list for `O=C([O][Bi]([c]1ccccc1)[c]1ccccc1)c1ccccc1`?
A: T/C [3]: 101 % of control; T/C [4]: 96 % of control; T/C [5]: 88 % of control

Q: Which T/C (dose: 10.0 mg/kg/injection, schedule: Q01DX009 (ip), vehicle: Klucel (hydroxypropylcellulose) (HPC)) does the source give for `C=C1C(=O)OC2/C=C(\C)CC/C=C(/C)CC(OC(=O)/C(=C/CO)CO)C12` (stereo not given) here?
A: 106 % of control

Q: And the T/C (dose: 20.0 mg/kg/injection, schedule: Q01DX009 (ip), vehicle: Klucel (hydroxypropylcellulose) (HPC))?
A: 98 % of control

Q: What about the T/C (dose: 40.0 mg/kg/injection, schedule: Q01DX009 (ip), vehicle: Klucel (hydroxypropylcellulose) (HPC)) of the same molecule?
A: 96 % of control

Q: Which results are given for `CC(=O)OCC1OC(n2ccc(N)nc2=O)C(OC(C)=O)C1OC(C)=O` (stereo not given)?
A: T/C [6]: 106 % of control; T/C [7]: 104 % of control; T/C [8]: 109 % of control; T/C (dose: 100.0 mg/kg/injection, schedule: Q01DX009 (ip), vehicle: saline): 108 % of control; T/C (dose: 200.0 mg/kg/injection, schedule: Q01DX009 (ip), vehicle: saline): 120 % of control

Q: Which results are given for `COC(=O)NC1C(C)OC(OC2C/C=C(/C)C3C=CC4C(OC5CC(OC6CC(OC7CC(O)C(O)C(C)O7)C(OC7CC(O)C(OC)C(C)O7)C(C)O6)C(O)C(C)O5)C(C)CC(C)C4C3(C)/C(O)=C3\C(=O)OC4(CC(C)C(CO)=CC4/C=C\2C)C3=O)CC1(C)[N+](=O)[O-]` (stereo not given)?
A: T/C [9]: 117 % of control and 100 % of control; T/C [10]: 108 % of control and 122 % of control; T/C (dose: 12.5 mg/kg/injection, schedule: Q01DX009 (sc), vehicle: water): 92 % of control; T/C [11]: 116 % of control; T/C (dose: 25.0 mg/kg/injection, schedule: Q01DX009 (sc), vehicle: water): 91 % of control; T/C (dose: 50.0 mg/kg/injection, schedule: Q01DX009 (sc), vehicle: water): 113 % of control; T/C (dose: 100.0 mg/kg/injection, schedule: Q01DX009 (sc), vehicle: water): 89 % of control; T/C (dose: 200.0 mg/kg/injection, schedule: Q01DX009 (sc), vehicle: water): 98 % of control

Q: For `CNC(=O)ON(C(C)=O)C(=O)NC`, which T/C [6] is on record?
A: 102 % of control

Q: What about the T/C [7] of the same molecule?
A: 107 % of control

Q: And the T/C [8]?
A: 102 % of control

Q: With `O=C(CCl)NC(Cc1ccc(O)cc1)C(=O)O` (stereo not given) as the molecule, how does the T/C [1] read?
A: 93 % of control

Q: What about the T/C [2] of the same molecule?
A: 87 % of control

Q: How did the T/C (dose: 0.12 mg/kg/injection, schedule: Q01DX009 (ip), vehicle: Klucel (hydroxypropylcellulose) (HPC)) turn out when `CC[C@]1(O)C[C@H](OC2CC(N(C)C)C(OC3CC(O)C(O)C(C)O3)C(C)O2)c2c(cc3c(c2O)C(=O)c2c(O)ccc(O)c2C3=O)[C@H]1C(=O)OC` (stereo not given in full) was run?
A: 106 % of control

Q: And the T/C (dose: 0.25 mg/kg/injection, schedule: Q01DX009 (ip), vehicle: Klucel (hydroxypropylcellulose) (HPC))?
A: 115 % of control

Q: And the T/C (dose: 1.0 mg/kg/injection, schedule: Q01DX009 (ip), vehicle: Klucel (hydroxypropylcellulose) (HPC))?
A: 177 % of control

Q: And the T/C (dose: 2.0 mg/kg/injection, schedule: Q01DX009 (ip), vehicle: Klucel (hydroxypropylcellulose) (HPC))?
A: 191 % of control

Q: Which results are given for `C/C(=N\NC(=S)N1CCN(c2ccccn2)CC1)c1ccccn1`?
A: T/C [9]: 99 % of control; T/C [10]: 99 % of control; T/C [11]: 111 % of control
